Source: PMC4057667, “Study on Biopharmaceutics Classification and Oral Bioavailability of a Novel Multikinase Inhibitor NCE for Cancer Therapy” (International Journal of Molecular Sciences, 2014)
Values joined by “and” are separate entries in the source; they are usually repeats but may differ in a detail not shown here. Identical values can stand only once.

Legend:
[1] = Equilibrium solubility in phosphate buffers; format: physicochemical; settings: aqueous buffer, thermodynamic from solid, n = 3, mean
Protocol: Different phosphate buffers with a pH range of 1.0–7.4 were prepared as follows. Momobasic potassium phosphate (KH2PO4, 0.2 M) was prepared by dissolving 27.22 g of KH2PO4 in water and diluting with water to 1000 mL. Sodium hydroxide (NaOH, 0.2 M) was prepared by dissolving […] of NaOH in water and diluting with water to 1000 mL. Then, we placed 50 mL of the momobasic potassium phosphate solution in a 200 mL volumetric flask, added the specified volume of the sodium hydroxide solution and added water to volume.
The equilibrium solubilities of NCE were determined in 0.1 mol/mL phosphate buffers with a pH range of 1.0–7.4. An excess amount of NCE was put into the buffer, placed in a 37 °C water bath and shaken for 3 days at a rate of 100 rpm. Samples were centrifuged at a rate of 1.3 × 10^4 rpm for 10 min and then measured by HPLC (Waters e2695 Separations Module, Milford, MA, USA). Each experiment was performed in triplicates.

[2] = test system: rat duodenum, jejunum and ileum; experiment: In situ single-pass intestinal perfusion (SPIP)
Protocol: The blank perfusion buffer solution was composed of 9.80 g Hanks’ Balanced Salts, 5.96 g 4-2(Hydroxyethyl) piperazine-1-ethanesulfonic acid (HEPES), 1.16 g NaCl, 3.50 g D-glucose and 0.37 g NaHCO3. The pH was adjusted to 6.5. […] The perfusate containing 2 μg/mL of NCE with and without 0.4% SDS was applied to three intestinal segments to investigate the effect of SDS on intestinal absorption of NCE. To examine whether there was any concentration-dependent characteristics or site specific absorption of NCE, 2, 20 and 40 μg/mL of NCE containing 0.4% SDS (w/v) were also studied in three intestinal segments using the same rat perfusion model.
Male Sprague-Dawley rats (170–230 g) were obtained from the Laboratory Animal Center, Sichuan University (Chengdu, China). Prior to the experiment, animals were fasted for at least 18 h with free access to water. All animal studies were approved and supervised by the State Key Laboratory of Biotherapy Animal Care and Use Committee (Sichuan University, Chengdu, Sichuan, China). Then, single pass intestine perfusion studies were conducted according to the literature. In brief, rats were anaesthetized by pentobarbital sodium (i.p., […]) and placed on a homeothermic pad to maintain their body temperature. After making a 3–4 cm midline abdominal incision, the small intestinal was exposed. The duodenum, jejunum and ileum were isolated as follows: duodenum segment beginning from 1 cm away from pylorus, jejunum segment beginning from 20 cm away from pylorus and ileum segment beginning at the site 20 cm upwards caecum. Each intestinal segment was approximately 10 cm long. After removing the intestinal content by rinsing with warm saline, two glass cannulas were inserted to the distal and proximal end of the segment. Then, the intestinal segments of interest were connected to a perfusion pump and the outlet tubing was placed at the same height as the inlet. The intestine was handled carefully to maintain an intact blood supply.
The segments were rinsed with perfusate at the rate of 1.0 mL/min for 10 min, and then perfused at the rate of 0.2 mL/min for 30 min to maintain a steady-state. The time was set zero immediately when the perfusion started. The outlet perfused samples were collected every 15 min until 120 min. Then, the samples were centrifuged at 1.3 × 10^4 rpm for 10 min. The supernatant was analyzed by HPLC. The length of tested segments was measured and rats were euthanized after experiment.
Peff is the quantitative parameter estimating the passage rate of a solute across a membrane. It was calculated from the steady-state concentration of NCE in the perfusate. The drug concentration in the perfusate was corrected for changes in the water flux. Meanwhile, the density corrected gravimetric method was employed to calculate the net water flux across the incubated intestinal segment. A known volume of perfusate was weighed using an electronic weighing balance to determine the density of the collected samples. After correcting for water flux, the drug concentration in the effluent perfusate (Cout(cor)), was calculated as following.
(3) Cout(cor)=Cout×Qout/Qin
where Cout is the concentration of tested drug in the effluent perfusates, Qin and Qout are the inlet and outlet flow rate (mL/min), respectively, which are adjusted for liquid density (mL/min).
The calculation of permeability across rat intestinal segment was performed from the intestinal perfusate samples collected over 15–120 min (steady state) using the following equation).
(4) Peff=-Qin ln(Cout(cor)/Cin)/2πrl

[3] = parameters: method as in ref 31 = [31]; 31. Yang Y. Fan C. Zhang J. He X. Yu Y. Fang D. He Y. Song X. Intestinal absorption characteristics and pharmacokinetics of the novel targeted small-molecular NCE in rats Chin. J. New Drugs 2013 21 25; settings: rats; cited from earlier work
[4] = test system: platelet-derived growth factor receptor (PDGFR); parameters: method as in PMID 21691074; settings: at a concentration of 10 μM; cited from earlier work

Question: With `CNC(=O)c1cc(Oc2ccc(NC(=O)c3cccc(C(F)(F)F)c3)cc2)ccn1.Cc1ccc(S(=O)(=O)O)cc1.O` [NCE, 2-methylcarbamoyl-4-{4-[3-(trifluoromethyl)benzamido]phenoxy} pyridinium 4-methylbenzenesulfonate monohydrate] as the compound, how does the solubility at 3 days ([1]; phosphate buffer pH 1.0, 37 °C) read?
Answer: The solubility at 3 days was 81.7 µg/mL.

Question: What about the solubility at 3 days ([1]; phosphate buffer pH 5.0, 37 °C) of the same compound?
Answer: The solubility at 3 days was 8.5 µg/mL.

Question: And the solubility at 3 days ([1]; phosphate buffer pH 6.8, 37 °C)?
Answer: The solubility at 3 days was 9.3 µg/mL.

Question: What about the solubility at 3 days ([1]; phosphate buffer pH 7.4, 37 °C) of the same compound?
Answer: The solubility at 3 days was 10 µg/mL.

Question: What about the Peff ([2]; Duodenum, 2 μg/mL, with 0.4% SDS, n = 3) of the same compound?
Answer: Its Peff is 0.26 ± 0.25 ^N.S. 10^−4 cm/s.

Question: What about the Peff ([2]; Duodenum, 2 μg/mL, without SDS, n = 3) of the same compound?
Answer: Its Peff is 0.26 ± 0.29 10^−4 cm/s.

Question: And the Peff ([2]; Duodenum, perfusate 2 μg/mL, 0.4% SDS, n = 6)?
Answer: The Peff was 0.21 ± 0.18 10^−4 cm/s.

Question: What about the Peff ([2]; Duodenum, perfusate 20 μg/mL, 0.4% SDS, n = 6) of the same compound?
Answer: The Peff was 0.34 ± 0.12 10^−4 cm/s.

Question: And the Peff ([2]; Duodenum, perfusate 40 μg/mL, n = 6)?
Answer: The Peff was 0.49 ± 0.29 ^* 10^−4 cm/s and 0.49 ± 0.29 10^−4 cm/s.

Question: And the Peff ([2]; Ileum, 2 μg/mL, with 0.4% SDS, n = 3)?
Answer: Its Peff is 0.22 ± 0.15 ^N.S. 10^−4 cm/s.

Question: And the Peff ([2]; Ileum, 2 μg/mL, without SDS, n = 3)?
Answer: Its Peff is 0.23 ± 0.18 ^N.S. 10^−4 cm/s.

Question: And the Peff ([2]; Ileum, perfusate 2 μg/mL, 0.4% SDS, n = 6)?
Answer: Its Peff is 0.23 ± 0.25 ^N.S. 10^−4 cm/s.

Question: What about the Peff ([2]; Ileum, perfusate 20 μg/mL, 0.4% SDS, n = 6) of the same compound?
Answer: Its Peff is 0.29 ± 0.10 ^N.S. 10^−4 cm/s.

Question: And the Peff ([2]; Ileum, perfusate 40 μg/mL, n = 6)?
Answer: The Peff was 0.52 ± 0.28 ^N.S. ^* 10^−4 cm/s and 0.52 ± 0.28 ^N.S. 10^−4 cm/s.

Question: What about the Peff ([2]; Jejunum, 2 μg/mL, with 0.4% SDS, n = 3) of the same compound?
Answer: Its Peff is 0.25 ± 0.22 ^N.S. 10^−4 cm/s.

Question: What about the Peff ([2]; Jejunum, 2 μg/mL, without SDS, n = 3) of the same compound?
Answer: The Peff was 0.25 ± 0.24 ^N.S. 10^−4 cm/s.

Question: And the Peff ([2]; Jejunum, perfusate 2 μg/mL, 0.4% SDS, n = 6)?
Answer: The Peff was 0.20 ± 0.30 ^N.S. 10^−4 cm/s.

Question: And the Peff ([2]; Jejunum, perfusate 20 μg/mL, 0.4% SDS, n = 6)?
Answer: Its Peff is 0.30 ± 0.15 ^N.S. 10^−4 cm/s.

Question: What about the Peff ([2]; Jejunum, perfusate 40 μg/mL, n = 6) of the same compound?
Answer: Its Peff is 0.56 ± 0.26 ^N.S. ^* 10^−4 cm/s and 0.56 ± 0.26 ^N.S. 10^−4 cm/s.

Question: And the “transportation mechanism in intestine” value ([2]; Peff unchanged from 2–40 μg/mL)?
Answer: Its value is “passive diffusion”.

Question: What about the permeability class ([2]; from Peff compared with theophylline, ranitidine and propranolol) of the same compound?
Answer: The permeability class was “high permeability”.

Question: What about the “minimum of Peff” value ([2]; three segments, three concentrations, found in jejunum) of the same compound?
Answer: Its value is 20 ×10⁻⁶ cm/s.

Question: What about the absolute oral bioavailability [3] of the same compound?
Answer: Its absolute oral bioavailability is 44.18%.

Question: And the inhibition rate [4]?
Answer: Its inhibition rate is 55%.
